{"source": "ChEMBL document CHEMBL5465560", "about": "“Selectivity Literature for EUbOPEN Chemogenomic Library” (2024)", "key": {"[1]": {"target": "T1, Serine/threonine-protein kinase Sgk1 (Homo sapiens) (UniProt O00141)", "T1 sequence (whole entry)": "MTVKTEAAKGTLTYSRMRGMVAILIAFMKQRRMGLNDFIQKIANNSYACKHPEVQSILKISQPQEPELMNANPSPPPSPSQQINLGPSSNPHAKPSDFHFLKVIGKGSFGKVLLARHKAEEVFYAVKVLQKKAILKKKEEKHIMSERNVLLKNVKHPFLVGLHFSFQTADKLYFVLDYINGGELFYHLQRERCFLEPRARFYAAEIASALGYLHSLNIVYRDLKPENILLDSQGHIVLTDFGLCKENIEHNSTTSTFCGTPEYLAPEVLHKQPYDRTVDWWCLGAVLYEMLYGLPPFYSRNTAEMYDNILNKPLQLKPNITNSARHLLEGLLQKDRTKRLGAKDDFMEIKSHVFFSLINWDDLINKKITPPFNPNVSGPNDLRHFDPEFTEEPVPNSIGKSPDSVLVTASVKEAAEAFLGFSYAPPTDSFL", "test": "Selectivity interaction (KinomeScan (DiscoverX)) EUB0001049a SGK1", "settings": "at 1 µM"}, "[2]": {"target": "Mitogen-activated protein kinase 8 (Homo sapiens, UniProt P45983)", "sequence (P45983 whole entry)": "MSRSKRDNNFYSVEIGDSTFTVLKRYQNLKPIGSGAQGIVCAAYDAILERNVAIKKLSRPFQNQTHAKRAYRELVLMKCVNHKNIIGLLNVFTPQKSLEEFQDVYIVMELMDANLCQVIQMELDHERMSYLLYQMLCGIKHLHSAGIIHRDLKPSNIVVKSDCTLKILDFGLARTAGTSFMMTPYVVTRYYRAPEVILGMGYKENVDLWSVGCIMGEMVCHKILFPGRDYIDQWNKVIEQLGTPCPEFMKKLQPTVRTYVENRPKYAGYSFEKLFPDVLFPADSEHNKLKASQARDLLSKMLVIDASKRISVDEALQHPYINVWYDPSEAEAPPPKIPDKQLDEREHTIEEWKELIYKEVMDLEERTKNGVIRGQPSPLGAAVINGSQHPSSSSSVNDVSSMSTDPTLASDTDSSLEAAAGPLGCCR", "test": "Selectivity interaction (Enzymatic assay) EUB0001199aCl MAPK8"}, "[3]": {"target": "Cyclin-dependent kinase-like 3 (Homo sapiens) (UniProt Q8IVW4)", "test": "Selectivity interaction (KinomeScan (DiscoverX)) EUB0000666a CDKL3", "settings": "at 10 µM"}, "[4]": {"target": "Mitogen-activated protein kinase kinase kinase kinase 1 (Homo sapiens) (UniProt Q92918)", "sequence (Q92918 whole entry, looked up)": "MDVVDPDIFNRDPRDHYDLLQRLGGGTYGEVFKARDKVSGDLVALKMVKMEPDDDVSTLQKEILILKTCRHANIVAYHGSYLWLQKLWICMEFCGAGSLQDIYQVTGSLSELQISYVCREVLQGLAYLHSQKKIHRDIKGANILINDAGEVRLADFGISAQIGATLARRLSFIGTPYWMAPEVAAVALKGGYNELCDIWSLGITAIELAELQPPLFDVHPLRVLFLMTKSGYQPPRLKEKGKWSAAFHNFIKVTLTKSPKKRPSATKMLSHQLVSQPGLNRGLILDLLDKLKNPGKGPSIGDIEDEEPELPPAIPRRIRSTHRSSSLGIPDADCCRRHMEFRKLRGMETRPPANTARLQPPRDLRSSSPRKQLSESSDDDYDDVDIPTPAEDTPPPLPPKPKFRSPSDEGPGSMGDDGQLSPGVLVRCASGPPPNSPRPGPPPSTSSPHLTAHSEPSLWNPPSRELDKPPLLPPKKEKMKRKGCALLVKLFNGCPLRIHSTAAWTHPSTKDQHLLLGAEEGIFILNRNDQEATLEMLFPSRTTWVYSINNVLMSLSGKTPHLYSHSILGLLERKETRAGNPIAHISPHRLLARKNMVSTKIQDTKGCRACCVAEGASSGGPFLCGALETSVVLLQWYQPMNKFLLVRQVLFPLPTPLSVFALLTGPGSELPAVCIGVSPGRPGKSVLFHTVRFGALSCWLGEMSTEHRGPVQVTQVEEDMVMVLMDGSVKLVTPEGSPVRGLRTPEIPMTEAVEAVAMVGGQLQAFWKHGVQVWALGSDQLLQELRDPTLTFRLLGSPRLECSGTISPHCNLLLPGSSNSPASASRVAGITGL", "test": "Selectivity interaction (KinomeScan (DiscoverX)) EUB0000229b MAP4K1", "settings": "at 10 µM"}, "[5]": {"target": "Fibroblast growth factor receptor 1 (Homo sapiens, UniProt P11362)", "sequence (P11362 22-822 limits assumed)": "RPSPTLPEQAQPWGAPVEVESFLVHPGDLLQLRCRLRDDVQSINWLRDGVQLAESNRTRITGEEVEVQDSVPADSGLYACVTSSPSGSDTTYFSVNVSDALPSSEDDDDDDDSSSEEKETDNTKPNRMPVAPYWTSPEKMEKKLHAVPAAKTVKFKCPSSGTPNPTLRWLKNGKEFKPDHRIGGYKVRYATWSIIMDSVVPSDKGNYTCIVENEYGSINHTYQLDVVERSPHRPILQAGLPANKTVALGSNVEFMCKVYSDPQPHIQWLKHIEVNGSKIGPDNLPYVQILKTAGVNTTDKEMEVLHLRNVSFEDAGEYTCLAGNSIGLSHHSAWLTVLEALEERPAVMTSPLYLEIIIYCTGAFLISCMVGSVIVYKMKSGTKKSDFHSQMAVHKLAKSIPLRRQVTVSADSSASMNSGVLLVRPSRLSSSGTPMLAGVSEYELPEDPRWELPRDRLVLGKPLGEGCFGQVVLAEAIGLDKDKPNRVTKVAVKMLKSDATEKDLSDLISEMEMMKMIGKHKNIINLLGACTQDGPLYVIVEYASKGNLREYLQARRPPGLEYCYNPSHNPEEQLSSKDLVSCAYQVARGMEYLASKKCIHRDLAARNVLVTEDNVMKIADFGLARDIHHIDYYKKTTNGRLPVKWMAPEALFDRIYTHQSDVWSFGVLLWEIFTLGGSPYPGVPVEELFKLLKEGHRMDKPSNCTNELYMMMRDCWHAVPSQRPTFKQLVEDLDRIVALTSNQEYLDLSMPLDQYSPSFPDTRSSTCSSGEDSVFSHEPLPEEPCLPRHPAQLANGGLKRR", "test": "Selectivity interaction (KinomeScan (DiscoverX)) EUB0000229b FGFR1", "settings": "at 10 µM"}, "[6]": {"target": "Rho-associated protein kinase 1 (Homo sapiens) (UniProt Q13464)", "sequence (Q13464 2-1354 limits assumed)": "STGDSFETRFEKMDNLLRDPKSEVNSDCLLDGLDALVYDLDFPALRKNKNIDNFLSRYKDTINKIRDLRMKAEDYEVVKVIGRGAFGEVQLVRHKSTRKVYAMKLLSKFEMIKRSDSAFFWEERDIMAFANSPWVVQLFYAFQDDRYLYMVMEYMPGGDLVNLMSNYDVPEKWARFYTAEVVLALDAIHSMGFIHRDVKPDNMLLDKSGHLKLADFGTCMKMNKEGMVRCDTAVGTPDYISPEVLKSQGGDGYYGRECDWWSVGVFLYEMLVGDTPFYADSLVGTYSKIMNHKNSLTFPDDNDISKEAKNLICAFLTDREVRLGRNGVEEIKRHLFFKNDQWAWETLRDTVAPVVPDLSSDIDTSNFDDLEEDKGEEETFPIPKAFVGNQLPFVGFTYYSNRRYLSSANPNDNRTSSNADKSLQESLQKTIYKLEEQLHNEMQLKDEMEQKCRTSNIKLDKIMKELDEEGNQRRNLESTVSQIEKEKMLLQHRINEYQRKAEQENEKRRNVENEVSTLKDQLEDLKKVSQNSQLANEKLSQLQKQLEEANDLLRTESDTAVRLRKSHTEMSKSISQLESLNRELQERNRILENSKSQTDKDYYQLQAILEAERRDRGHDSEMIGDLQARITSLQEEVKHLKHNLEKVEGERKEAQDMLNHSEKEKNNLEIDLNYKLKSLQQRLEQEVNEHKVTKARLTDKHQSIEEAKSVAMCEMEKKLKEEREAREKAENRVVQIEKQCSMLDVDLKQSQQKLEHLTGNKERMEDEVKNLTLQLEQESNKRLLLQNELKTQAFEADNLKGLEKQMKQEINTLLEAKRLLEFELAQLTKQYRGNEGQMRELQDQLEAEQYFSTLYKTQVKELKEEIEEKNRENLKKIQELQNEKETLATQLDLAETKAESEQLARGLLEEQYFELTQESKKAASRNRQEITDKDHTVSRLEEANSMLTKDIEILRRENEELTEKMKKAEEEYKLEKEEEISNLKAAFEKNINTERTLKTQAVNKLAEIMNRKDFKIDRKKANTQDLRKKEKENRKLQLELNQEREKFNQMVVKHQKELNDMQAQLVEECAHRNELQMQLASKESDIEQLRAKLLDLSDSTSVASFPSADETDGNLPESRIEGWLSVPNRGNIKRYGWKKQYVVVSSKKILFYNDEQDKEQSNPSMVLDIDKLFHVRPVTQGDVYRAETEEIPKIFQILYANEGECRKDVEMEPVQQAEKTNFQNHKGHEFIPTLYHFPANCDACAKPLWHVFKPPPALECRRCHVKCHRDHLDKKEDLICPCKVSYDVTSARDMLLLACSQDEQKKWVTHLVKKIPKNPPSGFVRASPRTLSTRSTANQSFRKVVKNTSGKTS", "test": "Selectivity interaction (KinomeScan (DiscoverX)) EUB0001079a ROCK1", "settings": "at 1 µM"}, "[7]": {"target": "Beta-2 adrenergic receptor (Homo sapiens, UniProt P07550)", "sequence (P07550 whole entry, looked up)": "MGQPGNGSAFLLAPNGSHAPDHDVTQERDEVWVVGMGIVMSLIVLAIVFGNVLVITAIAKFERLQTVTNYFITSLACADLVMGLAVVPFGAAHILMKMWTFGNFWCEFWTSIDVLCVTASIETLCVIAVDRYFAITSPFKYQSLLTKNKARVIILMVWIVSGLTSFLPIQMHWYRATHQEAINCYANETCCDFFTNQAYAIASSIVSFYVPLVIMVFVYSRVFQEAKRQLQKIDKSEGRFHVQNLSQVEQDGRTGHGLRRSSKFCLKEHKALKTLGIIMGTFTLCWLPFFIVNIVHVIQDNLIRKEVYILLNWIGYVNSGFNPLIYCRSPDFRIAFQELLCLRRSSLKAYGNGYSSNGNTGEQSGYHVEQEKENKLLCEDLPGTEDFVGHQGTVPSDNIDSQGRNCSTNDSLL", "test": "Selectivity interaction (GPCR panel (PDSP screen)) EUB0001079a ADRB2", "settings": "at 10 µM"}, "[8]": {"target": "Protein polybromo-1 (Homo sapiens) (UniProt Q86U86)", "test": "Selectivity interaction (Human bromodomain panel (DSF assay)) EUB0000233b PBRM1"}, "[9]": {"target": "Tudor domain-containing protein 3 (Homo sapiens) (UniProt Q9H7E2)", "test": "Selectivity interaction (PWWP, WD40, and Tudor domain panel (DSLS measurements, literature)) EUB0000270b TDRD3"}, "[10]": {"target": "Protein-tyrosine kinase 2-beta (Homo sapiens) (UniProt Q14289)", "test": "Selectivity interaction (Kinase panel (Invitrogen)) EUB0000639a PTK2B", "settings": "at 200 nM"}, "[11]": {"target": "RAC-beta serine/threonine-protein kinase (Homo sapiens) (UniProt P31751)", "test": "Selectivity interaction (KinomeScan (DiscoverX)) EUB0000595a AKT2", "settings": "at 10 µM"}, "[12]": {"target": "Glycogen synthase kinase-3 beta (Homo sapiens, UniProt P49841)", "sequence (P49841 whole entry, looked up)": "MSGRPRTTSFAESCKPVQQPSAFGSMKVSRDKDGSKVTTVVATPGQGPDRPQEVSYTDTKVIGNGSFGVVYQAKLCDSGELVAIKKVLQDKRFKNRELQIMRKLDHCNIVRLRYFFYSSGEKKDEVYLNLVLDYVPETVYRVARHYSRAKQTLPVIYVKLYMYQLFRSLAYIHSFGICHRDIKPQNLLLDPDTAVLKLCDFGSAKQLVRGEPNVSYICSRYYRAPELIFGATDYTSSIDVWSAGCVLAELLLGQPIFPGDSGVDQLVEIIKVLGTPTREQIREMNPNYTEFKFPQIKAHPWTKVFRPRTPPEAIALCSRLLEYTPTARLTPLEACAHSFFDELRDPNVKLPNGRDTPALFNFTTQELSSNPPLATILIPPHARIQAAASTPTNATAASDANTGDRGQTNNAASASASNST", "settings": "at 10 µM"}, "[13]": {"target": "Ribosomal protein S6 kinase alpha-2 (Homo sapiens) (UniProt Q15349)", "test": "Selectivity interaction (KinomeScan (DiscoverX)) EUB0001619a RPS6KA2", "settings": "at 1 µM"}, "[14]": {"target": "Maternal embryonic leucine zipper kinase (Homo sapiens) (UniProt Q14680)", "test": "Selectivity interaction (KinomeScan (DiscoverX)) EUB0000655a MELK", "settings": "at 10 µM"}, "[15]": {"target": "Receptor-interacting serine/threonine-protein kinase 2 (Homo sapiens, UniProt O43353)", "test": "Selectivity interaction (KinomeScan (DiscoverX)) EUB0000655a RIPK2", "settings": "at 10 µM"}, "[16]": {"target": "T2, Serine/threonine-protein kinase D1 (Homo sapiens) (UniProt Q15139)", "T2 sequence (whole entry)": "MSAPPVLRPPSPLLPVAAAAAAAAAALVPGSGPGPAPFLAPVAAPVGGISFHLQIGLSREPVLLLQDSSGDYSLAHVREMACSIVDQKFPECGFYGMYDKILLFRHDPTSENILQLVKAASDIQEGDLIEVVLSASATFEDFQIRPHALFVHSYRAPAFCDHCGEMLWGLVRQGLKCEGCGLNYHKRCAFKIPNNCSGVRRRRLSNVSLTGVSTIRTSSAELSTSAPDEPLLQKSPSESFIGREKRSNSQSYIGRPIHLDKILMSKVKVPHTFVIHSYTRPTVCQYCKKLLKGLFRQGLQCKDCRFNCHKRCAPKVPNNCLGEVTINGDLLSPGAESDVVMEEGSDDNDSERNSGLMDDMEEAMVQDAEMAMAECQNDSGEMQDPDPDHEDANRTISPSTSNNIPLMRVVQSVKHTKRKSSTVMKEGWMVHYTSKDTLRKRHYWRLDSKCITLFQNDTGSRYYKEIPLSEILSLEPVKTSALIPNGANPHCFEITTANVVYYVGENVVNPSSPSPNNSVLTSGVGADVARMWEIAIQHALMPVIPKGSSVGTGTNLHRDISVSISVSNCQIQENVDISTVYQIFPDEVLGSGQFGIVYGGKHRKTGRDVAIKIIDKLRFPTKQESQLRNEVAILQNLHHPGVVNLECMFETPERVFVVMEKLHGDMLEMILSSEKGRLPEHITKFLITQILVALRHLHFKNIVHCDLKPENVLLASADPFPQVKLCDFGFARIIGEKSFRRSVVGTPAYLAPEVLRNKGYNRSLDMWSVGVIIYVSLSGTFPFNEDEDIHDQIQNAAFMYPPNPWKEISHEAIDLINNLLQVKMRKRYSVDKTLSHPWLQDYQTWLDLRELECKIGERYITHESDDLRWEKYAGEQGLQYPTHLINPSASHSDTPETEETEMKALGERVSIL", "test": "Selectivity interaction (KinomeScan (DiscoverX)) EUB0000607a PRKD1", "settings": "at 10 µM"}, "[17]": {"target": "NT-3 growth factor receptor (Homo sapiens, UniProt Q16288)", "sequence (Q16288 32-839 limits assumed)": "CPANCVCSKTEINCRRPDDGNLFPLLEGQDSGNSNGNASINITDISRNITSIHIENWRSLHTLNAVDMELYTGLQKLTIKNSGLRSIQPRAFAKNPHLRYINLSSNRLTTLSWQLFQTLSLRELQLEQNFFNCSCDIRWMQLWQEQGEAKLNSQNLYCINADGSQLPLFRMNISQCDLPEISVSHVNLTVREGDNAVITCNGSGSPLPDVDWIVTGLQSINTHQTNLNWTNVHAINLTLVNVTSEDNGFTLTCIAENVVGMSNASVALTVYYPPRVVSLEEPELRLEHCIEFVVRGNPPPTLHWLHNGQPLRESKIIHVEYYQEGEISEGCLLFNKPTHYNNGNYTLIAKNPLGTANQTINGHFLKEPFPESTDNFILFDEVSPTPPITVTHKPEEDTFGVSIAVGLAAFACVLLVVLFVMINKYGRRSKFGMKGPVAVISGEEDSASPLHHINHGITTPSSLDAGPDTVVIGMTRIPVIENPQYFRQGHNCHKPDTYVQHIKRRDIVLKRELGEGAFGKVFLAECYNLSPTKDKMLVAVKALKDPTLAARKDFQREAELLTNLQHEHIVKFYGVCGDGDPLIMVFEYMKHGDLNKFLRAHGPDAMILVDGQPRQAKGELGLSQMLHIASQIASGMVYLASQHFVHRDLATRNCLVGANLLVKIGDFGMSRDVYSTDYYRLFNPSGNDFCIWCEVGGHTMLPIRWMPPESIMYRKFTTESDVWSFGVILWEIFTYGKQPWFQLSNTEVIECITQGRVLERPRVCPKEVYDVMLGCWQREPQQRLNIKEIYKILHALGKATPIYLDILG", "test": "Selectivity interaction (Kinase panel (Z-LYTE Assay)) EUB0001632a NTRK3", "settings": "at 10 µM"}}, "data": [{"compound": "COc1cc(Nc2nc(C)cc(-c3cnn4nc(OC)ccc34)n2)cc(C(F)(F)F)c1", "values": [{"measurement": "% of control", "setting": "[1]", "value": 94, "unit": "%"}]}, {"compound": "CN1Cc2nccc(-c3cn(C)nc3-c3ccc(F)cc3)c2C1=O", "values": [{"measurement": "IC50", "setting": "[2]", "value": 1020, "unit": "nM"}]}, {"compound": "O=C(NOC[C@H](O)CO)c1ccc(F)c(F)c1Nc1ccc(I)cc1F", "values": [{"measurement": "% of control", "setting": "[3]", "value": 98, "unit": "%"}]}, {"compound": "COc1cc(N(C)c2ccnc3ccc(C(F)(F)F)cc23)cc(OC)c1OC", "values": [{"measurement": "% binding", "setting": "[4]", "value": 96, "unit": "%"}, {"measurement": "% binding", "setting": "[5]", "value": 99, "unit": "%"}]}, {"compound": "Nc1cnc(N2CCc3cc(S(=O)(=O)Nc4c(F)cc(Cl)cc4F)cc(N4CCCC4=O)c32)nc1", "note": "[TP-020n]", "values": [{"measurement": "% of control", "setting": "[6]", "value": 96, "unit": "%"}, {"measurement": "% of inhibition", "setting": "[7]", "value": -3.08, "unit": "%"}]}, {"compound": "CN(C)CCCOc1ccc(-c2cc(NCCCn3cccn3)nc(S(C)(=O)=O)n2)cc1", "values": [{"measurement": "dTM", "setting": "[8]", "value": "< 2", "unit": "K"}]}, {"compound": "Cc1cc(CN)cc(C)c1-c1ncn(C)c1-c1cncn1C", "values": [{"measurement": "dTagg", "setting": "[9]", "value": 0.8, "unit": "K"}]}, {"compound": "CC[C@@H]1[C@H](F)C(=O)N[C@@H]1COc1nccc2cc(C(N)=O)c(OC)cc12", "note": "[ZIMLOVISERTIB]", "values": [{"measurement": "% of inhibition", "setting": "[10]", "value": -0.0574, "unit": "%"}]}, {"compound": "COCC(=O)NC/C=C/c1ccc2ncnc(Nc3ccc(Oc4ccc(C)nc4)c(C)c3)c2c1", "note": "[CP-724714]", "values": [{"measurement": "% of control", "setting": "[11]", "value": 100, "unit": "%"}]}, {"compound": "Cc1cc([C@@H](C)Nc2ccccc2C(=O)O)c2nc(N3CCOCC3)cc(=O)n2c1", "note": "[AZD-6482]", "values": [{"measurement": "% of control", "setting": "[12]", "value": 100, "unit": "%"}]}, {"compound": "N#Cc1cccc(-c2c[nH]c3ncnc(N4CCOCC4)c23)c1", "values": [{"measurement": "% of control", "setting": "[13]", "value": 100, "unit": "%"}]}, {"compound": "CN(C)CCOc1ccc(-c2nc(-c3ccncc3)c(-c3ccc4c(c3)CC/C4=N\\O)[nH]2)cc1", "values": [{"measurement": "% of control", "setting": "[14]", "value": 100, "unit": "%"}, {"measurement": "% of control", "setting": "[15]", "value": 14, "unit": "%"}]}, {"compound": "CNC(=O)Nc1ccc(-c2nc(N3CC4CCC(C3)O4)c3cnn(C4CCC5(CC4)OCCO5)c3n2)cc1", "values": [{"measurement": "% of control", "setting": "[16]", "value": 100, "unit": "%"}]}, {"compound": "Cn1cc(-n2cnc3c(NCc4nc5cc(Cl)c(Cl)cc5[nH]4)nc(N4CCOCC4)nc32)cn1", "values": [{"measurement": "% of control", "setting": "[17]", "value": 19, "unit": "%"}]}]}
